Reference: patent publication US9221809B2 (MERCK SHARP & DOHME CORP., priority 2011, dated 2015)
Structures can show the parent of a compound that is named as a salt.

molecular target: IRAK4 (Homo sapiens (Human), UniProt Q9NWZ3); test: IRAK4 kinase activity, IMAP fluorescence polarization assay; type: biochemical; conditions: 100 μM ATP, 0.5 nM GST tagged IRAK4; read-out: IRAK4 IC50
Method in brief: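 GST-tagged IRAK4 at 0.5 nM phosphorylates 100 nM fluorescent peptide substrate with 100 μM ATP in pH 7.2 Tris buffer containing MgCl2, DTT and Tween 20, 30 min at 25 °C. Reaction stopped with IMAP binding reagent; phosphorylation read as increased fluorescence polarization.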

Sequence of IRAK4 (Q9NWZ3 whole entry): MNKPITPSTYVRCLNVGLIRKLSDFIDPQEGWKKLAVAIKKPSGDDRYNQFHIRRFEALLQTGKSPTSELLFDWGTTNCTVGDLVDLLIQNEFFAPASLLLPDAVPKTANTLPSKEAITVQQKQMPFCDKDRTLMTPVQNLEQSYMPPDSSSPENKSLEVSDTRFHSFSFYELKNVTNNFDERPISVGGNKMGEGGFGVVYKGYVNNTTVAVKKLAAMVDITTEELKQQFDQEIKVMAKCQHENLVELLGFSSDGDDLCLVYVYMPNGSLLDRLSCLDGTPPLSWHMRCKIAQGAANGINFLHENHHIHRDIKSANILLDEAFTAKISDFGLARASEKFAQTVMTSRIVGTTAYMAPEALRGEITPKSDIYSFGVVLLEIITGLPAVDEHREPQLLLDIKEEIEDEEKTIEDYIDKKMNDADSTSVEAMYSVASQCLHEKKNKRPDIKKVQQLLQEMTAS

Compound | IC50 [µM]
O=c1[nH]c(N2CCOCC2)nc(N[C@@H]2CCCNC2)c1-c1nc2cc(F)ccc2s1 [Example 97, (R)-5-(5-Fluorobenzo[d]thiazol-2-yl)-2-morpholino-6-(piperidin-3-ylamino)pyrimidin-4(3H)-one.HCl] | 0.0084
O=c1[nH]c(N2CCOCC2)nc(N[C@@H]2CCCNC2)c1-c1nc(C2CC2)cs1 [Example 100, (R)-5-(4-cyclopropylthiazol-2-yl)-2-morpholino-6-(piperidin-3-ylamino)pyrimidin-4(3H)-one.HCl] | 0.433
O=c1[nH]c(N2CCOCC2)nc(N[C@@H]2CCCNC2)c1-c1nccs1 [Example 101, (R)-2-morpholino-6-(piperidin-3-ylamino)-5-(thiazol-2-yl)pyrimidin-4(3H)-one.HCl] | 1.83
O=c1[nH]c(N2CCOCC2)nc(N[C@@H]2CCCNC2)c1-c1nc(-c2ccc(OC(F)(F)F)cc2)cs1 [Example 103, (R)-2-morpholino-6-(piperidin-3-ylamino)-5-(4-(4-(trifluoromethoxy)phenyl)thiazol-2-yl)pyrimidin-4(3H)-one.HCl] | 2.25
CC1CCC(Nc2nc(N3CCOCC3)[nH]c(=O)c2-c2ccc3ccccc3n2)CN1 (centres unmarked) [Example 107, 6-((6-methylpiperidin-3-yl)amino)-2-morpholino-5-(quinolin-2-yl)pyrimidin-4(3H)-one.HCl] | 0.091
Cc1ccc(-c2c(N[C@@H]3CCCNC3)nc(N3CCOCC3)[nH]c2=O)nc1 [Example 110, (R)-5-(5-methylpyridin-2-yl)-2-morpholino-6-(piperidin-3-ylamino)pyrimidin-4(3H)-one] | 0.872

The next lines start with the values.

IC50 [µM] | Compound
0.177 | O=c1[nH]c(N2CCOCC2)nc(NC2CCNC2)c1-c1nc2ccccc2s1 (centres unmarked) [Example 85, 5-(Benzo[d]thiazol-2-yl)-2-morpholino-6-(pyrrolidin-3-ylamino)pyrimidin-4(3H)-one.HCl]
0.62 | O=c1[nH]c(N2CCOCC2)nc(N[C@H]2CCNC2)c1-c1nc2ccccc2s1 [Example 86, (S)-5-(Benzo[d]thiazol-2-yl)-2-morpholino-6-(pyrrolidin-3-ylamino)pyrimidin-4(3H)-one.HCl]
0.036 | O=c1[nH]c(N2CCOCC2)nc(N[C@@H]2CCNC2)c1-c1nc2ccccc2s1 [Example 87, (R)-5-(Benzo[d]thiazol-2-yl)-2-morpholino-6-(pyrrolidin-3-ylamino)pyrimidin-4(3H)-one.HCl]
0.258 | NC1CCCC(Nc2nc(N3CCOCC3)[nH]c(=O)c2-c2nc3ccccc3s2)C1 (centres unmarked) [Example 90, 6-(3-Aminocyclohexylamino)-5-(benzo[d]thiazol-2-yl)-2-morpholinopyrimidin-4(3H)-one.HCl]
2.43 | O=C1NCCCC[C@H]1Nc1nc(N2CCOCC2)[nH]c(=O)c1-c1nc2ccccc2s1 [Example 91, (R)-3-(5-(Benzo[d]thiazol-2-yl)-2-morpholino-6-oxo-1,6-dihydropyrimidin-4-ylamino)azepan-2-one.HCl]
0.027 | O=c1[nH]c(N2CCOCC2)nc(NC2CCCCNC2)c1-c1nc2ccccc2s1 (centres unmarked) [Example 92, 6-(Azepan-3-ylamino)-5-(benzo[d]thiazol-2-yl)-2-morpholinopyrimidin-4(3H)-one.HCl]
0.026 | O=c1[nH]c(N2CCOCC2)nc(N[C@@H]2CCCNC2)c1-c1ccc2ccccc2n1 [Example 93, (R)-2-Morpholino-6-(piperidin-3-ylamino)-5-(quinolin-2-yl)pyrimidin-4(3H)-one.HCl]
0.354 | CN1CCC[C@@H](Nc2nc(N3CCOCC3)[nH]c(=O)c2-c2nc3ccccc3s2)C1 [Example 95, (R)-5-(Benzo[d]thiazol-2-yl)-6-(1-methylpiperidin-3-ylamino)-2-morpholinopyrimidin-4(3H)-one.HCl]
0.024 | O=c1[nH]c(N2CCOCC2)nc(N[C@@H]2CCCNC2)c1-c1nc(-c2ccc(F)cc2)cs1 [Example 98, (R)-5-(4-(4-Fluorophenyl)thiazol-2-yl)-2-morpholino-6-(piperidin-3-ylamino)pyrimidin-4(3H)-one.HCl]
0.0057 | Cc1nccc2sc(-c3c(N[C@@H]4CCCNC4)nc(N4CCOCC4)[nH]c3=O)nc12 [Example 99, (R)-5-(4-Methylthiazolo[4,5-c]pyridin-2-yl)-2-morpholino-6-(piperidin-3-ylamino)pyrimidin-4(3H)-one.HCl]
1.27 | Cc1cnc(-c2c(N[C@@H]3CCCNC3)nc(N3CCOCC3)[nH]c2=O)s1 [Example 102, (R)-5-(5-methylthiazol-2-yl)-2-morpholino-6-(piperidin-3-ylamino)pyrimidin-4(3H)-one.HCl]
0.079 | O=c1[nH]c(N2CCOCC2)nc(N[C@@H]2CCCCNC2)c1-c1nc2ccccc2s1 [Example 104, (R)-6-(azepan-3-ylamino)-5-(benzo[d]thiazol-2-yl)-2-morpholinopyrimidin-4(3H)-one.HCl]
0.085 | O=c1[nH]c(N2CCOCC2)nc(N[C@H]2CNC[C@H](O)C2)c1-c1nc2ccccc2s1 [Example 105, 5-(benzo[d]thiazol-2-yl)-6-(((3R,5R)-5-hydroxypiperidin-3-yl)amino)-2-morpholinopyrimidin-4(3H)-one.HCl]
1.47 | Cc1cccc(-c2c(N[C@@H]3CCCNC3)nc(N3CCOCC3)[nH]c2=O)n1 [Example 109, (R)-5-(6-methylpyridin-2-yl)-2-morpholino-6-(piperidin-3-ylamino)pyrimidin-4(3H)-one]
0.009 | O=c1[nH]c(N2CCOCC2)nc(N[C@@H]2CCCNC2)c1-c1nc2c(C3CC3)nccc2s1 [Example 111, (R)-5-(4-cyclopropylthiazolo[4,5-c]pyridin-2-yl)-2-morpholino-6-(piperidin-3-ylamino)pyrimidin-4(3H)-one.HCl]
0.046 | O=c1[nH]c(N2CCOCC2)nc(N[C@@H]2CCCNC2)c1-c1nc2ccc(F)cc2s1 [Example 112, (R)-5-(6-fluorobenzo[d]thiazol-2-yl)-2-morpholino-6-(piperidin-3-ylamino)pyrimidin-4(3H)-one.HCl]

same assay, conditions: unit inferred; 100 μM ATP; read-out: IRAK4 IC50

IC50 [µM] | Compound
0.0194 | Cn1cc(C2CCN(c3nc(N[C@@H]4C[C@H](CO)[C@@H](O)[C@H]4O)c(-c4nc5ccccc5s4)c(=O)[nH]3)CC2)nn1 [Example 73, 5-(benzo[d]thiazol-2-yl)-6-((1R,2S,3R,4R)-2,3-dihydroxy-4-(hydroxymethyl)cyclopentylamino)-2-(4-(1-methyl-1H-1,2,3-triazol-4-yl)piperidin-1-yl)pyrimidin-4(3H)-one]
0.0264 | O=c1[nH]c(N2CCc3cnccc3C2)nc(N[C@@H]2C[C@H](CO)[C@@H](O)[C@H]2O)c1-c1nc2ccccc2s1 [Example 74, 5-(benzo[d]thiazol-2-yl)-2-(3,4-dihydro-2,6-naphthyridin-2(1H)-yl)-6-((1R,2S,3R,4R)-2,3-dihydroxy-4-(hydroxymethyl)cyclopentylamino)pyrimidin-4(3H)-one]
0.226 | O=c1[nH]c(N2CCCN(Cc3nccs3)CC2)nc(N[C@@H]2C[C@H](CO)[C@@H](O)[C@H]2O)c1-c1nc2ccccc2s1 [Example 75, 5-(benzo[d]thiazol-2-yl)-6-((1R,2S,3R,4R)-2,3-dihydroxy-4-(hydroxymethyl)cyclopentylamino)-2-(4-(thiazol-2-ylmethyl)-1,4-diazepan-1-yl)pyrimidin-4(3H)-one]
0.0309 | O=c1[nH]c(N2CCC(c3ccncc3)C2)nc(N[C@@H]2C[C@H](CO)[C@@H](O)[C@H]2O)c1-c1nc2ccccc2s1 (stereo partly drawn) [Example 76, 5-(benzo[d]thiazol-2-yl)-6-((1R,2S,3R,4R)-2,3-dihydroxy-4-(hydroxymethyl)cyclopentylamino)-2-(3-(pyridin-4-yl)pyrrolidin-1-yl)pyrimidin-4(3H)-one]
0.225 | CS(=O)(=O)N1CCCN(c2nc(N[C@@H]3C[C@H](CO)[C@@H](O)[C@H]3O)c(-c3nc4ccccc4s3)c(=O)[nH]2)CC1 [Example 77, 5-(benzo[d]thiazol-2-yl)-6-((1R,2S,3R,4R)-2,3-dihydroxy-4-(hydroxymethyl)cyclopentylamino)-2-(4-(methylsulfonyl)-1,4-diazepan-1-yl)pyrimidin-4(3H)-one]
0.036 | O=c1[nH]c(N2CCC(c3ccccn3)CC2)nc(N[C@@H]2C[C@H](CO)[C@@H](O)[C@H]2O)c1-c1nc2ccccc2s1 [Example 78, 5-(benzo[d]thiazol-2-yl)-6-((1R,2S,3R,4R)-2,3-dihydroxy-4-(hydroxymethyl)cyclopentylamino)-2-(4-(pyridin-2-yl)piperidin-1-yl)pyrimidin-4(3H)-one]
0.0367 | CC(=O)NCC1CCN(c2nc(N[C@@H]3C[C@H](CO)[C@@H](O)[C@H]3O)c(-c3nc4ccccc4s3)c(=O)[nH]2)CC1 [Example 79, N-((1-(5-(benzo[d]thiazol-2-yl)-4-((1R,2S,3R,4R)-2,3-dihydroxy-4-(hydroxymethyl)cyclopentylamino)-6-oxo-1,6-dihydropyrimidin-2-yl)piperidin-4-yl)methyl)acetamide]
0.119 | O=c1[nH]c(N2CCC(Cn3cccn3)CC2)nc(N[C@@H]2C[C@H](CO)[C@@H](O)[C@H]2O)c1-c1nc2ccccc2s1 [Example 80, 2-(4-((1H-pyrazol-1-yl)methyl)piperidin-1-yl)-5-(benzo[d]thiazol-2-yl)-6-((1R,2S,3R,4R)-2,3-dihydroxy-4-(hydroxymethyl)cyclopentylamino)pyrimidin-4(3H)-one]
0.196 | O=C1NC2(CCN(c3nc(N[C@@H]4C[C@H](CO)[C@@H](O)[C@H]4O)c(-c4nc5ccccc5s4)c(=O)[nH]3)CC2)CO1 [Example 81, 8-(5-(benzo[d]thiazol-2-yl)-4-((1R,2S,3R,4R)-2,3-dihydroxy-4-(hydroxymethyl)cyclopentylamino)-6-oxo-1,6-dihydropyrimidin-2-yl)-3-oxa-1,8-diazaspiro[4.5]decan-2-one]
0.197 | O=c1[nH]c(N2CCC(c3ccccn3)C2)nc(N[C@@H]2C[C@H](CO)[C@@H](O)[C@H]2O)c1-c1nc2ccccc2s1 (stereo partly drawn) [Example 82, 5-(benzo[d]thiazol-2-yl)-6-((1R,2S,3R,4R)-2,3-dihydroxy-4-(hydroxymethyl)cyclopentylamino)-2-(3-(pyridin-2-yl)pyrrolidin-1-yl)pyrimidin-4(3H)-one]
